Experimental data: US7754705B2, “Cationic steroid antimicrobial compositions and methods of use” (priority 2006, dated 2010)
Read-outs that look alike come from different tables or passages of the source.

Legend:
[1] = tested on: vaccinia virus; format: cell-based, vaccinia virus; human keratinocytes (HaCaT)
[2] = tested on: vaccinia virus
[3] = tested on: vaccinia virus; assay: microbe, parasite or virus in culture; conditions: Orthopoxvirus vaccinia, BSC-1, in Chlorocebus sabaeus, 24 h
[4] = tested on: vaccinia lipid envelope; format: binding, vaccinia virus; keratinocytes

Row | Compound | activity against vaccinia virus (vaccinia gene expression) [1] | concentration at which significant viral killing was observed / compound was effective [2] [µM] | % Viability ([2]; 5 μM) [%] | % Viability ([2]; 10 μM) [%] | % Viability ([2]; 25 μM) [%] | % Viability ([2]; 50 μM) [%] | % Viability ([2]; 100 μM) [%] | viability at 5 µM [3] [%] | viability at 10 µM [3] [%] | viability at 25 µM [3] [%] | viability at 50 µM [3] [%] | viability at 100 µM [3] [%] | effectiveness in killing vaccinia virus (in words) [2] | incorporation into vaccinia lipid envelope versus keratinocyte membrane [4] | % Viability ([2]; 1 μM) [%]
1 | CCCCCCCCOCCCC(C)C1CCC2C3C(OCCCN)CC4CC(OCCCN)CCC4(C)C3CC(OCCCN)C12C (stereo not drawn) [CSA-7] | most effective | 5 | 0.56 | 0.00 | 0.00 | 0.00 | 0.00 | – | – | – | – | – | – | – | –
2 | CC(CCCO)C1CCC2C3C(OCCCN)CC4CC(OCCCN)CCC4(C)C3CC(OCCCN)C12C (stereo not drawn) [CSA-8] | – | – | 61.87 | 28.79 | 4.67 | 2.33 | 1.56 | – | – | – | – | – | – | – | –
3 | CC(O)[C@H]1CC[C@H]2[C@@H]3[C@H](OCCCN)C[C@@H]4C[C@H](OCCCN)CC[C@]4(C)[C@H]3C[C@H](OCCCN)[C@]12C (stereo partly drawn) [CSA-11] | – | – | – | – | – | – | – | 84.2 | 92.9 | 100 | 97.3 | 98.4 | – | – | –
4 | CCCCCCCCNCCC[C@@H](C)[C@H]1CC[C@H]2[C@@H]3[C@H](OCCCN)C[C@@H]4C[C@H](OCCCN)CC[C@]4(C)[C@H]3C[C@H](OCCCN)[C@]12C [CSA-13] | most effective | – | 37.50 | 8.82 | 3.31 | 0.00 | 0.00 | – | – | – | – | – | – | – | –
5 | CC(CCCN)C1CCC2C3C(OCCCN)CC4CC(OCCCN)CCC4(C)C3CC(OCCCN)C12C (stereo not drawn) [CSA-15] | – | – | 98.88 | 93.68 | 101.49 | 97.40 | 65.80 | – | – | – | – | – | – | – | –
6 | CCCOCCCC(C)C1CCC2C3C(OCCCN)CC4CC(OCCCN)CCC4(C)C3CC(OCCCN)C12C (stereo not drawn) [CSA-17] | – | – | 53.18 | 19.48 | 3.00 | 0.00 | 0.00 | – | – | – | – | – | – | – | –
7 | CC(CCCOS(=O)(=O)O)C1CCC2C3C(OCCCN)CC4CC(OCCCN)CCC4(C)C3CC(OCCCN)C12C (stereo not drawn) [CSA-21] | – | – | 100.00 | 71.76 | 40.39 | 14.12 | 4.31 | – | – | – | – | – | – | – | –
8 | CC(CCCOCCCN)C1CCC2C3C(OCCCN)CC4CC(OCCCN)CCC4(C)C3CC(OCCCN)C12C (stereo not drawn) [CSA-25] | – | – | 97.40 | 74.35 | 66.91 | 39.41 | 10.04 | – | – | – | – | – | – | – | –
9 | CC(CCCO)C1CCC2C3C(NC(=O)CCCCCN)CC4CC(NC(=O)CCCCCN)CCC4(C)C3CC(NC(=O)CCCCCN)C12C (stereo not drawn) [CSA-31] | – | – | 99.24 | 99.24 | 101.52 | 102.28 | 101.52 | – | – | – | – | – | little or no detectable activity | – | –
10 | CCCCCCCCNCCC[C@@H](C)[C@H]1CC[C@H]2[C@@H]3CC[C@@H]4C[C@H](OCCCN)CC[C@]4(C)[C@H]3C[C@H](OCCCN)[C@]12C [CSA-46] | most effective | – | 41.89 | 3.77 | 0.38 | 0.00 | 0.00 | – | – | – | – | – | – | – | –
11 | CC(CCCNCCCNCCCN)C1CCC2C3C(OCCCN)CC4CC(OCCCN)CCC4(C)C3CC(OCCCN)C12C (stereo not drawn) [CSA-54] | – | – | 103.91 | 101.12 | 95.53 | 101.12 | 95.53 | – | – | – | – | – | little or no detectable activity | – | –
12 | CC(CCCNC(=O)CCC(=O)c1ccc2cc(N(C)C)ccc2c1)C1CCC2C3C(OCCCN)CC4CC(OCCCN)CCC4(C)C3CC(OCCCN)C12C (stereo not drawn) [CSA-59] | – | – | 97.83 | 66.31 | 26.09 | 0.54 | 0.00 | – | – | – | – | – | – | preferentially incorporates into the vaccinia lipid envelope over the keratinocyte membrane with a high degree of selectivity | –
13 | CCCCCN(CCCCC)CCCC(C)C1CCC2C3C(OCCCN)CC4CC(OCCCN)CCC4(C)C3CC(OCCCN)C12C.Cl.Cl.Cl.Cl (stereo not drawn) [CSA-90] | – | – | 23.67 | 14.49 | 7.73 | 4.83 | 0.48 | – | – | – | – | – | – | – | 64.73
14 | CCCCCCCCN(CCCCCCCC)CCCC(C)C1CCC2C3C(OCCCN)CC4CC(OCCCN)CCC4(C)C3CC(OCCCN)C12C.Cl.Cl.Cl.Cl (stereo not drawn) [CSA-91] | – | – | 0.00 | 0.00 | 0.00 | 0.00 | 0.00 | – | – | – | – | – | most effective | – | 10.31
15 | CCCCCCCCCCCCCCCCNCCCC(C)C1CCC2C3C(OCCCN)CC4CC(OCCCN)CCC4(C)C3CC(OCCCN)C12C.Cl.Cl.Cl.Cl (stereo not drawn) [CSA-92] | – | – | 0.00 | 0.00 | 0.00 | 0.00 | 0.00 | – | – | – | – | – | most effective | – | 0.00
